Measured values from patent publication US9458492B2, “Methods and cells for identifying RIG-I pathway regulators” (Kineta, Inc., priority 2011, dated 2016).
Entries after “also recorded” stand apart in the source; their conditions may differ.

How the values were obtained:
ISG54 promoter = ISG54 promoter luciferase reporter assay / high-throughput screen in Huh 7 cells; type: cell-based, human
Description: A compound referred to herein as “KIN101” was identified by the screening methods disclosed herein as a RIG-I modulator. Huh 7 cells stably expressing a luciferase cistron driven by the ISG54 promoter were treated with KIN101 for 18 hours and then analyzed for luciferase production. […] Huh 7 cells were stably transfected with a luciferase promoter construct driven by the consensus ISG54 promoter. The following sequence was inserted into the pGL4.17 construct (Promega) using the restriction sites indicated (underlined): Reporter cell lines were cultured under antibiotic selection until seeding. Cells were seeded in white opaque bottom 96-well tissue culture plates at a density of 1×10^4 cells/well and grown for 24 hours without antibiotic selection. […] The remainder of the wells were treated with compound diluted to a final concentration of 10 μM in media containing 0.5% DMSO. Cells were incubated with control or compound treatment for 24 hours. Steady-Glo luciferase reagent (Promega) was added at 50 μL per well, mixed thoroughly, and incubated at room temperature for 20 minutes. Luminescence was quantitated per well using a luminometer (Berthold). Confirmation of initial hits was performed in triplicate.

actin promoter = actin promoter luciferase counter screen in Huh 7 cells; type: cell-based, human; settings: 10 uM
Huh7 cells = type: cell-based, human
Description: To assess a potential effect of KIN101 on cellular metabolism, Huh7 cells were grown for 48 hours with increasing doses of KIN101 and analyzed using an MTS assay (the higher the O.D. the more metabolism occurring).
Huh 7 cells were seeded in clear bottom 96-well tissue culture plates and grown for 24 hours. Seeded cells were treated with increasing concentrations of compound (0, 5, 10, 20, and 50 μM in media containing 0.5% DMSO) for 24 hours. Negative control wells contained 0.5% DMSO only and positive control for cytotoxicity was examined using an EMCV infection which causes 100% cytopathic effect. The proportion of viable cells was calculated using a cell viability assay that measures conversion of a tetrazolium compound [[…]-5-(3-carboxymethoxyphenyl)-2-(4-sulfophenyl)-2H-tetrazolium, inner salt; MTS] to a colored formazan compound in live cells. The conversion of MTS to formazan was detected by a 96-well microtiter plate reader, and the resulting optical densities (O.D.) were used directly to estimate cell viability. Cells were incubated for three hours in the presence of one-step reagent (Cell Titer One, Promega) before O.D. reading was done. Experiments were performed in triplicate.

IRF-3 [1] = test: Immunofluorescent assay for nuclear translocation of IRF-3 in Huh7 cells; type: cell-based, human; settings: 10 μM, 18 h
Description: Huh 7 cells were seeded in clear bottom 96-well tissue culture plates at a density of 5×10^3 cells per well and grown for 24 hours. Cells were treated with compounds at final concentrations of 20 μM and 10 μM in media containing 0.5% DMSO. Negative control cells contain 0.5% DMSO only and positive control cells were infected with 10 HA of Sendai virus. […] Staining was performed as directed by instructions in the Cellomics translocation kit (Thermo Scientific). Rabbit polyclonal antibody against IRF-3 was used (1:400). Secondary anti-rabbit antibody conjugated to Dylight 488 (FITC equivalent) and Hoescht dye (nuclear stain) were used for detection of cellular IRF-3 and cell nuclei. Following secondary antibody incubation the monolayers were washed and left in 100 μL wash buffer for imaging. IRF-3 (FITC) and nuclear staining (DAPI) were viewed and quantitated by inverted microscope. Images were taken using MetaMorph software and saved as high resolution image files. Compound treatments were done in triplicate.

MRC5 cells = test: Expression microarray analysis of KIN101-treated MRC5 cells; type: cell-based, human; settings: 10 μM
Description: Expression microarray analysis and bioinformatics were performed as follows. Total RNA isolation and mRNA amplification were performed on equal masses of total RNA from MRC5 cells treated with either DMSO, negative control, or 10 μM KIN101 at 20 hours post treatment, and from MRC5 cells infected with Sendai virus at 20 hours post infection. Probe labeling and microarray slide hybridization were performed with the Agilent Whole Human Genome microarrays, wherein each microarray contains 44K probes, corresponding to approximately 41,000 human genes. Slides were scanned with an Agilent DNA microarray scanner, and the resulting images were analyzed using Agilent Feature Extractor (AFE) version 9.5.3.1. All data were entered into a custom-designed Oracle 9i-backed relational database (Labkey, Inc., Seattle, Wash.) and uploaded into Rosetta Resolver System 7.2 (Rosetta Biosoftware) and Spotfire Decision Site 9.1.1 (Spotfire AB) for analysis and visualization. […] Functional analysis of statistically significant gene expression changes was performed with IPA® (Ingenuity Systems, Inc., Redwood City, Calif.). This software analyzes RNA expression data in the context of known biological response and regulatory networks as well as other higher-order response pathways. IPA functional analysis identified biological functions and/or diseases that were most significant among differentially regulated genes. In the functional networks, genes are represented as nodes, and the biological relationship between 2 nodes is represented as an edge (line). All edges are supported by at least 1 published reference or from canonical information stored in the Ingenuity Pathways Knowledge Base. MRC5 cells were treated with KIN101 (10 μM) or a negative control (selected from the diversity library for having no activity in screening assays) for 20 h. Sendai virus infection was used as a positive control for the up-regulation of innate immune pathways. Total RNA was purified from triplicate samples to enable statistical analysis of the microarray data.

[2] = tested on: proteins downstream of IRF activation; test: Western blot of IRF centric gene products in treated cells; type: cell-based, human; settings: after KIN101 treatment; IFN-β positive control
Text: Western blot was used to quantitate levels of IRF centric gene products in human whole cell lysates from cells treated with KIN101.

HCV-2a = HCV-2a antiviral assays in Huh 7 cells (immunofluorescence, qPCR); type: cell-based, Hepatitis C virus; settings: Huh7 cells, HCV-2a MOI 1.0
Description: Huh 7 cells were treated with KIN101 for 24 hours and then infected with HCV-2a MOI=1.0. Cells were grown for an additional 48 hours and then stained for HCV proteins. The number of infected cells versus concentration of KIN101 added was plotted in panel A.
Huh 7 cells were pre-treated with KIN101 at 10 uM and grown for 18 hours. Cells were then infected with HCV-2a MOI=1.0 and grown for an additional 72 hours. Supernatants from infected cells were harvested, HCV RNA was purified and viral RNA quantitated utilizing Real Time PCR with HCV specific primers. Cells infected with HCV that were not KIN101-treated were utilized as a control and values set to 100% infection rate. Interferon-alpha was used as a positive control for HCV inhibition.
Huh 7 cells were infected with HCV-2a MOI=1.0 and 4 hours following infection compounds or interferon were added to infected cells. The remainder of experiment was performed as described for FIG. 7B.
Huh 7 cells were seeded as described above for the IRF-3 immunofluorescent assay. Cells were treated with 10 μM compound in media containing 0.5% DMSO. […] The number of infected cells was quantitated based on positive staining. […]
Huh 7 cells were seeded and treated as described above for the HCV antiviral assay. […] The genome copies of HCV2a in 5 μL of RNA purified from supernatants was quantitated by qPCR. […]

[3] = tested on: Influenza A virus WSN strain; test: Influenza A antiviral assays (NP ELISA, western blot); type: cell-based; settings: NP protein ELISA / western blot
RSV A2 strain = test: RSV-infected HeLa cell viability (trypan blue count); type: cell-based, respiratory syncitial virus (RSV); settings: HeLa cells, RSV A2 MOI=1.0, treated 48 hours
Description: HeLa cells were infected with RSV A2 strain MOI=1.0 and were then treated with KIN101 for 48 hours. Cells were grown under normal growth conditions and cell viability was determined by counting the number of live cells and comparing drug treated and RSV infected cells to infected cells that were mock treated (no drug; vehicle alone). Cells were stained with trypan blue and counted using a hemacytometer. The number of live cells versus concentration of KIN101 added was plotted.

RSV-A2 = test: RSV viral RNA by Real Time PCR in HeLa supernatants; type: cell-based, respiratory syncitial virus (RSV); settings: RSV-A2 MOI=1.0, 48 hours
Description: HeLa cells were infected with RSV-A2 MOI=1.0 and subsequently treated with KIN101 at the indicated concentrations and grown for 48 hours. Supernatants from infected cells were harvested, RSV RNA was purified and viral RNA quantitated utilizing Real Time PCR with RSV specific primers. Cells infected with RSV that were not KIN101-treated were utilized as a control.

RSV = RSV plaque formation in HeLa cells; type: cell-based, respiratory syncitial virus (RSV); settings: MOI=1.0 or 0.1, 10 uM in agar overlay, 3-4 days
Description: HeLa cells were seeded to 90% confluency and infected with RSV at MOI=1.0 (1^3 dilution) or MOI=0.1 (1^4 dilution) for 2 hours. Virus was removed and cells were overlayed with agar in the presence of KIN101 10 uM. Infected cells were incubated for 3-4 days to allow for RSV plaque formation. Plaques were visualized by staining with crystal violet.

Dengue virus serotype 2 = test: Dengue virus protein western blot in HEK 293 cells; type: cell-based; settings: 0.1 uM, pre-treated 18 hours, MOI=1.0, 48 hours
Description: HEK 293 cells were seeded to a confluency of 80% in a 6-well dish. Cells were grown for 18 hours under normal growth conditions. Cells were treated with the indicated concentration of KIN101 in media containing 0.5% DMSO for 18 hours. The next day drug was removed from treated cells and cells were infected with Dengue virus serotype 2 at an MOI=1.0; infected cells were incubated under normal growth conditions for 48 hours. For Dengue virus analysis whole cell lysates were prepared and analyzed by western blot for Dengue virus specific proteins.

IRF-3 [4] = test: IRF-3 nuclear translocation in cells expressing HCV NS3-4A protease (viral countermeasure); settings: human osteosarcoma cells expressing HCV NS3-4A protease, 10 μM, 18 h
Description: Human osteosarcoma cells were stably transformed with the HCV NS3-4A protease coding sequence under control of a tetracycline inducible promoter. Cells were grown in the presence of tetracycline to keep expression of HCV protease off. […] Sendai virus infection was used as a control for IRF-3 translocation that was inhibited by HCV NS3-4A protease. Mock-treated cells were grown in media containing 0.5% DMSO. Images were analyzed on an Array Scan VTI to quantitate the IRF-3 staining in the nucleus and cytoplasm.
U2OS NS3/4A cells were thoroughly washed to remove Tetracycline and then seeded for the assay in the absence of Tetracycline to enable NS3/4A expression. Compound treatments were done as described above for Huh 7 cells.

[5] = 20 h, ANOVA p-value <0.01, >2 fold change

**Q.** CS(=O)(=O)Oc1ccc2c(=O)c(-c3ccc(Br)cc3)coc2c1 [KIN101] was tested. Which “hit in high-throughput screen for ISG54 luciferase reporter activity (RIG-I agonist activity)” value (ISG54 promoter; 20,000-member diversity library screened at 10 μM, four standard deviation threshold) did it give?
**A.** Its value is “hits”.

**Q.** What about the “luciferase expression under control of the ISG54 promoter” value (ISG54 promoter; Huh 7 cells, treated 18 hours, increasing doses) of the same molecule?
**A.** Its value is “dose dependent increase in luciferase expression”.

**Q.** What about the “expression of luciferase under control of the actin promoter” value (actin promoter) of the same molecule?
**A.** The value was “did not increase expression of luciferase”.

**Q.** What about the “effect on cellular metabolism (MTS assay)” value (Huh7 cells) of the same molecule?
**A.** Its value is “did not affect cellular metabolism”.

**Q.** And the IRF-3 nuclear translocation (IRF-3 [1])?
**A.** The IRF-3 nuclear translocation was “induced nuclear translocation of IRF-3; also recorded: induction of IRF-3 nuclear translocation”.

**Q.** And the “differentially expressed genes compared to DMSO treatment” value (MRC5 cells; [5])?
**A.** Its value is 75 genes.

**Q.** And the “down-regulated genes compared to DMSO treatment” value (MRC5 cells; [5])?
**A.** The value was 11 genes.

**Q.** And the “up-regulated genes compared to DMSO treatment” value (MRC5 cells; [5])?
**A.** The value was 64 genes.

**Q.** What about the “expression of immune pathways” value (MRC5 cells; 20 hours post treatment) of the same molecule?
**A.** The value was “induced expression of discrete immune pathways centered on IRF signaling”.

**Q.** And the “abundance of proteins downstream of IRF activation (Western blot)” value [2]?
**A.** The value was “increased abundance of proteins downstream of IRF activation”.

**Q.** What about the “antiviral activity against HCV” value (HCV-2a) of the same molecule?
**A.** Its value is “antiviral activity”.

**Q.** What about the “antiviral activity against Influenza A” value [3] of the same molecule?
**A.** The value was “antiviral activity”.

**Q.** And the “protection from RSV induced cytopathic effects and cell death” value (RSV A2 strain)?
**A.** Its value is “protects cells from RSV induced cytopathic effects and cell death”.

**Q.** And the “amount of RSV viral RNA produced by infected cells” value (RSV-A2)?
**A.** The value was “decreases the amount of RSV viral RNA produced by infected cells”.

**Q.** And the “number and size of RSV induced plaques” value (RSV)?
**A.** Its value is “decreases the number and size of viral induced plaques”.

**Q.** What about the “inhibition of Dengue virus protein accumulation” value (Dengue virus serotype 2) of the same molecule?
**A.** The value was “substantially complete inhibition”.

**Q.** And the “IRF-3 nuclear translocation in the presence of viral countermeasure” value (IRF-3 [4])?
**A.** The value was “induction of IRF-3 nuclear translocation”.
